# Laboratory results from the NIST ThermoML archive (doi:10.1021/je700029q).
# Numbers after ± are expanded uncertainties.
# Assays:
# [1] = refractive index (Na D-line) (dimensionless); xn = mol fraction of the nth substance listed; details: 298.15 K, 101 kPa, Liquid
# [2] = xn = mol fraction of the nth substance listed; details: 101 kPa, Liquid
structure (smiles),measurement,setting,value
CCOS(=O)(=O)[O-].CCn1cc[n+](C)c1 [1-ethyl-3-methylimidazolium ethyl sulfate] + CCCO,refractive index,[1]; x2 = 0,1.4794 ± 0.0013
same,refractive index,[1]; x2 = 0.1619,1.47317 ± 0.0012
same,refractive index,[1]; x2 = 0.2104,1.47102 ± 0.0012
same,refractive index,[1]; x2 = 0.336,1.46449 ± 0.0011
same,refractive index,[1]; x2 = 0.5159,1.4524 ± 0.001
same,refractive index,[1]; x2 = 0.7298,1.43139 ± 0.00091
same,refractive index,[1]; x2 = 0.8046,1.42139 ± 0.00089
same,refractive index,[1]; x2 = 0.8894,1.40743 ± 0.00087
same,refractive index,[1]; x2 = 0.9401,1.39739 ± 0.00087
same,refractive index,[1]; x2 = 0.9727,1.39003 ± 0.00086
same,mass density,"[2]; 298.15 K, x2 = 0",1237.6 ± 9.2 kg/m3
same,speed of sound,"[2]; 298.15 K, x2 = 0",1679 ± 8 m/s
same,viscosity,"[2]; 298.15 K, x2 = 0",97.58 ± 5.1 mPa·s
same,mass density,"[2]; 298.15 K, x2 = 0.1619",1208.1 ± 6.3 kg/m3
same,speed of sound,"[2]; 298.15 K, x2 = 0.1619",1637 ± 8 m/s
same,viscosity,"[2]; 298.15 K, x2 = 0.1619",60.85 ± 1.6 mPa·s
same,mass density,"[2]; 298.15 K, x2 = 0.2104",1197.9 ± 5.6 kg/m3
same,speed of sound,"[2]; 298.15 K, x2 = 0.2104",1620 ± 7 m/s
same,viscosity,"[2]; 298.15 K, x2 = 0.2104",52.11 ± 1.1 mPa·s
same,mass density,"[2]; 298.15 K, x2 = 0.336",1167.4 ± 4 kg/m3
same,speed of sound,"[2]; 298.15 K, x2 = 0.336",1574 ± 7 m/s
same,viscosity,"[2]; 298.15 K, x2 = 0.336",34.41 ± 0.84 mPa·s
same,mass density,"[2]; 298.15 K, x2 = 0.5159",1111.6 ± 2.1 kg/m3
same,speed of sound,"[2]; 298.15 K, x2 = 0.5159",1492 ± 6 m/s
same,viscosity,"[2]; 298.15 K, x2 = 0.5159",18.01 ± 0.4 mPa·s
same,mass density,"[2]; 298.15 K, x2 = 0.7298",1015.5 ± 0.7 kg/m3
same,speed of sound,"[2]; 298.15 K, x2 = 0.7298",1382 ± 6 m/s
same,viscosity,"[2]; 298.15 K, x2 = 0.7298",7.296 ± 0.16 mPa·s
same,mass density,"[2]; 298.15 K, x2 = 0.8046",970 ± 0.6 kg/m3
same,speed of sound,"[2]; 298.15 K, x2 = 0.8046",1337 ± 6 m/s
same,viscosity,"[2]; 298.15 K, x2 = 0.8046",5.491 ± 0.12 mPa·s
same,mass density,"[2]; 298.15 K, x2 = 0.8894",907.7 ± 0.6 kg/m3
same,speed of sound,"[2]; 298.15 K, x2 = 0.8894",1284 ± 5 m/s
same,viscosity,"[2]; 298.15 K, x2 = 0.8894",3.577 ± 0.081 mPa·s
same,mass density,"[2]; 298.15 K, x2 = 0.9401",862.5 ± 0.7 kg/m3
same,speed of sound,"[2]; 298.15 K, x2 = 0.9401",1249 ± 5 m/s
same,viscosity,"[2]; 298.15 K, x2 = 0.9401",2.776 ± 0.064 mPa·s
same,mass density,"[2]; 298.15 K, x2 = 0.9727",829.8 ± 0.8 kg/m3
same,speed of sound,"[2]; 298.15 K, x2 = 0.9727",1227 ± 5 m/s
same,viscosity,"[2]; 298.15 K, x2 = 0.9727",2.419 ± 0.056 mPa·s
same,mass density,"[2]; 313.15 K, x2 = 0",1227.5 ± 9 kg/m3
same,speed of sound,"[2]; 313.15 K, x2 = 0",1642 ± 8 m/s
same,viscosity,"[2]; 313.15 K, x2 = 0",50.01 ± 1.3 mPa·s
same,mass density,"[2]; 313.15 K, x2 = 0.1619",1197.9 ± 6.2 kg/m3
same,speed of sound,"[2]; 313.15 K, x2 = 0.1619",1600 ± 8 m/s
same,viscosity,"[2]; 313.15 K, x2 = 0.1619",33.73 ± 0.94 mPa·s
same,mass density,"[2]; 313.15 K, x2 = 0.2104",1187.6 ± 5.5 kg/m3
same,speed of sound,"[2]; 313.15 K, x2 = 0.2104",1584 ± 7 m/s
same,viscosity,"[2]; 313.15 K, x2 = 0.2104",29.56 ± 0.8 mPa·s
same,mass density,"[2]; 313.15 K, x2 = 0.336",1157.1 ± 3.9 kg/m3
same,speed of sound,"[2]; 313.15 K, x2 = 0.336",1537 ± 7 m/s
same,viscosity,"[2]; 313.15 K, x2 = 0.336",20.72 ± 0.51 mPa·s
same,mass density,"[2]; 313.15 K, x2 = 0.5159",1100.8 ± 2.1 kg/m3
same,speed of sound,"[2]; 313.15 K, x2 = 0.5159",1456 ± 6 m/s
same,viscosity,"[2]; 313.15 K, x2 = 0.5159",11.73 ± 0.27 mPa·s
same,mass density,"[2]; 313.15 K, x2 = 0.7298",1004.4 ± 0.7 kg/m3
same,speed of sound,"[2]; 313.15 K, x2 = 0.7298",1340 ± 6 m/s
same,viscosity,"[2]; 313.15 K, x2 = 0.7298",5.125 ± 0.12 mPa·s
same,mass density,"[2]; 313.15 K, x2 = 0.8046",958.6 ± 0.6 kg/m3
same,speed of sound,"[2]; 313.15 K, x2 = 0.8046",1294 ± 5 m/s
same,viscosity,"[2]; 313.15 K, x2 = 0.8046",3.918 ± 0.09 mPa·s
same,mass density,"[2]; 313.15 K, x2 = 0.8894",895.9 ± 0.6 kg/m3
same,speed of sound,"[2]; 313.15 K, x2 = 0.8894",1238 ± 5 m/s
same,viscosity,"[2]; 313.15 K, x2 = 0.8894",2.58 ± 0.06 mPa·s
same,mass density,"[2]; 313.15 K, x2 = 0.9401",850.6 ± 0.7 kg/m3
same,speed of sound,"[2]; 313.15 K, x2 = 0.9401",1201 ± 5 m/s
same,viscosity,"[2]; 313.15 K, x2 = 0.9401",1.997 ± 0.047 mPa·s
same,mass density,"[2]; 313.15 K, x2 = 0.9727",817.8 ± 0.8 kg/m3
same,speed of sound,"[2]; 313.15 K, x2 = 0.9727",1178 ± 5 m/s
same,viscosity,"[2]; 313.15 K, x2 = 0.9727",1.729 ± 0.043 mPa·s
same,mass density,"[2]; 328.15 K, x2 = 0",1217.5 ± 8.9 kg/m3
same,speed of sound,"[2]; 328.15 K, x2 = 0",1605 ± 8 m/s
same,viscosity,"[2]; 328.15 K, x2 = 0",29.18 ± 0.92 mPa·s
same,mass density,"[2]; 328.15 K, x2 = 0.1619",1187.6 ± 6.1 kg/m3
same,speed of sound,"[2]; 328.15 K, x2 = 0.1619",1565 ± 7 m/s
same,viscosity,"[2]; 328.15 K, x2 = 0.1619",20.84 ± 0.59 mPa·s
same,mass density,"[2]; 328.15 K, x2 = 0.2104",1177.3 ± 5.4 kg/m3
same,speed of sound,"[2]; 328.15 K, x2 = 0.2104",1548 ± 7 m/s
same,viscosity,"[2]; 328.15 K, x2 = 0.2104",18.59 ± 0.51 mPa·s
same,mass density,"[2]; 328.15 K, x2 = 0.336",1146.7 ± 3.8 kg/m3
same,speed of sound,"[2]; 328.15 K, x2 = 0.336",1501 ± 7 m/s
same,viscosity,"[2]; 328.15 K, x2 = 0.336",13.61 ± 0.34 mPa·s
same,mass density,"[2]; 328.15 K, x2 = 0.5159",1090.2 ± 2 kg/m3
same,speed of sound,"[2]; 328.15 K, x2 = 0.5159",1419 ± 6 m/s
same,viscosity,"[2]; 328.15 K, x2 = 0.5159",8.159 ± 0.19 mPa·s
same,mass density,"[2]; 328.15 K, x2 = 0.7298",993.2 ± 0.7 kg/m3
same,speed of sound,"[2]; 328.15 K, x2 = 0.7298",1300 ± 5 m/s
same,viscosity,"[2]; 328.15 K, x2 = 0.7298",3.774 ± 0.089 mPa·s
same,mass density,"[2]; 328.15 K, x2 = 0.8046",947.2 ± 0.6 kg/m3
same,speed of sound,"[2]; 328.15 K, x2 = 0.8046",1252 ± 5 m/s
same,viscosity,"[2]; 328.15 K, x2 = 0.8046",2.918 ± 0.068 mPa·s
same,mass density,"[2]; 328.15 K, x2 = 0.8894",884 ± 0.7 kg/m3
same,speed of sound,"[2]; 328.15 K, x2 = 0.8894",1193 ± 5 m/s
same,viscosity,"[2]; 328.15 K, x2 = 0.8894",1.923 ± 0.046 mPa·s
same,mass density,"[2]; 328.15 K, x2 = 0.9401",838.5 ± 0.8 kg/m3
same,speed of sound,"[2]; 328.15 K, x2 = 0.9401",1154 ± 5 m/s
same,viscosity,"[2]; 328.15 K, x2 = 0.9401",1.482 ± 0.038 mPa·s
same,mass density,"[2]; 328.15 K, x2 = 0.9727",805.5 ± 0.9 kg/m3
same,speed of sound,"[2]; 328.15 K, x2 = 0.9727",1130 ± 5 m/s
same,viscosity,"[2]; 328.15 K, x2 = 0.9727",1.272 ± 0.035 mPa·s
